Measured values reported in ChEMBL document CHEMBL1201862, “PubChem BioAssay data set” (2004).
The source made the active and inactive calls.

Columns and labels:
[1] = A cytotoxicity screen of small molecule inhibitors of the PhoP region in Salmonella typhi identified in the primary screen. [Related pubchem assays: 1850, 1864, 1985 ]; assay type: functional
[2] = biological target: T1, Neuropeptide Y receptor type 2 (Homo sapiens, UniProt P49146); assay: Fluorescence-based cell-based high-throughput dose response assay for agonists of NPY-Y2. [Related pubchem assays: 1703 (Screening assay (CNGC inhibitors).), 1359 (Screening assay (NPY-Y2 potentiators or agonists).), 1304 (Screening assay (NPY-Y1 potentiators or agonists).), 1710 (Screening assay (NPY-Y2 agonists).), 1791 (Summary AID.)]; assay type: functional
T1 sequence (P49146 whole entry): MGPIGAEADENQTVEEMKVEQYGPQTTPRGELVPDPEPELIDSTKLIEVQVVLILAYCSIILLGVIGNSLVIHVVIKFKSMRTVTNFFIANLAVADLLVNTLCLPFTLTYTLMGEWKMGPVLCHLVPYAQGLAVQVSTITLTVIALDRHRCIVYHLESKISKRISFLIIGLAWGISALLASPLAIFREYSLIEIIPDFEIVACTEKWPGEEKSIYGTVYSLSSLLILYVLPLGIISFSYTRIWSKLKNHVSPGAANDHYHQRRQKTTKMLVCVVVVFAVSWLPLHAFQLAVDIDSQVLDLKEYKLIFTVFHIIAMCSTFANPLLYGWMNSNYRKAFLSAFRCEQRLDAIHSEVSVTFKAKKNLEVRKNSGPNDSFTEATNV

Streptococcus = assay: Group A Streptococcus viability loss, dose response, counter-screen for streptokinase expression inhibitor project, luminescence, BacTiterGlo (AID 1915); assay type: functional, organism-based;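 note: potency for reduction of bacterial viability or growth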
[3] = system: Streptococcus sp. 'group A'; assay: growth inhibition of control SK(-) GAS strain, dose response, counter-screen for streptokinase expression inhibitor project, luminescence, kanamycin, BacTiterGlo, confirmation (AID 1900); assay type: functional, organism-based
[4] = biological target: T2, Neuropeptide Y receptor type 1 (Homo sapiens, UniProt P25929); assay: Fluorescence-based counterscreen for agonists of NPY-Y2: cell-based high-throughput dose response assay for agonists of NPY-Y1.; assay type: functional
T2 sequence (P25929 whole entry): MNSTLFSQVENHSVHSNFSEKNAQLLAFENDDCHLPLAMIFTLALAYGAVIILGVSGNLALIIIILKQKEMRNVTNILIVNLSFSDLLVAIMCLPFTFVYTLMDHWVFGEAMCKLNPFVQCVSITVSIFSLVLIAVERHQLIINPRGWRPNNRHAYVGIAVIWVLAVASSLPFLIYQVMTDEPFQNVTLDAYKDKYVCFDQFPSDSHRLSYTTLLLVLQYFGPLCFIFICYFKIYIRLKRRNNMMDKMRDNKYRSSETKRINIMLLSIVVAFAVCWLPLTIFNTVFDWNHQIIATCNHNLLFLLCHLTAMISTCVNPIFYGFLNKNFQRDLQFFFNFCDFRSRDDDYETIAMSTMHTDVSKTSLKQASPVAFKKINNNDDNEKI

Fatty acid synthase [5] = biological target: T3, Fatty acid synthase (Homo sapiens, UniProt P49327); assay: FAS thioesterase domain inhibitors, dose response, biochemical, kinetic fluorescence intensity (AID 624326); assay type: functional;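 note: rate of fluorescence rise from hydrolysis of a fluorogenic O-methyl fluorescein ester substrate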
T3 sequence (P49327 whole entry, the tested form may be a part): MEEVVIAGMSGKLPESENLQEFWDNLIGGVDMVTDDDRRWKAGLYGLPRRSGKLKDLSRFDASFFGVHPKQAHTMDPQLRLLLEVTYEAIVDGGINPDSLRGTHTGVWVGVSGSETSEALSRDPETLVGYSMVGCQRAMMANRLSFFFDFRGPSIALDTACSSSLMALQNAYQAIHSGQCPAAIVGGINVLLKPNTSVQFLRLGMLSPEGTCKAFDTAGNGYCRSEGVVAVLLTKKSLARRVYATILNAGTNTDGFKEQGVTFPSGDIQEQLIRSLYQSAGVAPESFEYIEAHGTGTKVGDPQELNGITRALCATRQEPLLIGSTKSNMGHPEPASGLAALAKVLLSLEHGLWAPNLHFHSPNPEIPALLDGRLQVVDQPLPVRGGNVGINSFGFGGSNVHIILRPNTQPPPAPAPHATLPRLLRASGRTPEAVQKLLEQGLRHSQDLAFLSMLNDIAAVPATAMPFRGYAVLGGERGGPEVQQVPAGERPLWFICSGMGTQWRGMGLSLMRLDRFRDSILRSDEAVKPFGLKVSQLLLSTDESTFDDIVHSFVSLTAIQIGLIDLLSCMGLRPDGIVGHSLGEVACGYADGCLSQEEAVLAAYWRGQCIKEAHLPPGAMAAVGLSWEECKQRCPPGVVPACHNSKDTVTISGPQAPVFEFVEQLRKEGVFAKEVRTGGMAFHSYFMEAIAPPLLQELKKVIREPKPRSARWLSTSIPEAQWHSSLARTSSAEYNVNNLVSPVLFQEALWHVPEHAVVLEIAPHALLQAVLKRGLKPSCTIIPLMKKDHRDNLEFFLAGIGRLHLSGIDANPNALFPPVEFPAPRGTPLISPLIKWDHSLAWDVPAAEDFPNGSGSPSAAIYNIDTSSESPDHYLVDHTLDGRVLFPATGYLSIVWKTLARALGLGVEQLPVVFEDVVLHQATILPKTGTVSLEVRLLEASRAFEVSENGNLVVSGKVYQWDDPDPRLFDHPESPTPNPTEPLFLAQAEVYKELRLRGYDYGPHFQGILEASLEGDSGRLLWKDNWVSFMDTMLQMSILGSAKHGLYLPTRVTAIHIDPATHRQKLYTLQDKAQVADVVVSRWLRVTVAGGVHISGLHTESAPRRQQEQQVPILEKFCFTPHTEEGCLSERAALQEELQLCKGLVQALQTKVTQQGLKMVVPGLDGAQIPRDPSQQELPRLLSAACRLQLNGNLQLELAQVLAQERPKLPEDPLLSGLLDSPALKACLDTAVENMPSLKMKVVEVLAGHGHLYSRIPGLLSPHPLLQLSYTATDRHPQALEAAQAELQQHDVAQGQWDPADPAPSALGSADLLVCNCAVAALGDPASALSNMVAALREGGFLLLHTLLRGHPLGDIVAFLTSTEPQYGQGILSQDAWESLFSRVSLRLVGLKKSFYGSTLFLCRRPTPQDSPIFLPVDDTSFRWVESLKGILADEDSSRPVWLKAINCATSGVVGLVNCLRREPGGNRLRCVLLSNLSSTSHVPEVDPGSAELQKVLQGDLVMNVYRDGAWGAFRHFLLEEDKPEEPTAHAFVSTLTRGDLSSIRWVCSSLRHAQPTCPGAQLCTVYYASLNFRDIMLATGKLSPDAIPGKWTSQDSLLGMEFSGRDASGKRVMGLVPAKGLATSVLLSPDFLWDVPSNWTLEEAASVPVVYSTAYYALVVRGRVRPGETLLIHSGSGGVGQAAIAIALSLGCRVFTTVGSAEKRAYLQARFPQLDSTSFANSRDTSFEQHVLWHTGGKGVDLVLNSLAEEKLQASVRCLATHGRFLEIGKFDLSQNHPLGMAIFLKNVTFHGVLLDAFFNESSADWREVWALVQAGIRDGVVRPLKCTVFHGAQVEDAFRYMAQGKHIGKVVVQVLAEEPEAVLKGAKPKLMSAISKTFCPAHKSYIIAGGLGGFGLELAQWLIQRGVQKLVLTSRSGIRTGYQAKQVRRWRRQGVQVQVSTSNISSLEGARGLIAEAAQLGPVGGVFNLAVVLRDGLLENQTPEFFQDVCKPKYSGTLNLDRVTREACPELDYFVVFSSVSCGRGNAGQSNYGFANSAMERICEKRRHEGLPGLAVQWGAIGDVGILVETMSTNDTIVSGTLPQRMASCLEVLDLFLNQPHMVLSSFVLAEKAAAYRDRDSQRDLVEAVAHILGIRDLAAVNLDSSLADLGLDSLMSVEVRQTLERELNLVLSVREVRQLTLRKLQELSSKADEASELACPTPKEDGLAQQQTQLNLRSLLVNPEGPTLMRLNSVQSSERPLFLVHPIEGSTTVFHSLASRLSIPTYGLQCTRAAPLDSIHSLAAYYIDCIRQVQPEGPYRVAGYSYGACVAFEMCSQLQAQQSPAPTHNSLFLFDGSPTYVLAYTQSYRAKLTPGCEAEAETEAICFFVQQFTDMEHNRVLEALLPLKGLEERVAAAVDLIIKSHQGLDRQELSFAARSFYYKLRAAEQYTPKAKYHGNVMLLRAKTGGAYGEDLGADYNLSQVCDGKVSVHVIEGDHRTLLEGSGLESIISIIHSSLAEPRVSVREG

Paired box protein Pax-8 = Paired box protein Pax-8 (Homo sapiens, UniProt Q06710); assay: inhibitors of PAX8-driven TPO luciferase reporter, dose response, RMG-I cells, cherry-pick (AID 687027); assay type: functional, cell-based;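 note: luciferase reporter driven by Pax8 target thyroperoxidase promoter measured by SteadyGlo luminescence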
Streptokinase A = biological target: T4, Streptokinase A (Streptococcus pyogenes serotype M1, UniProt P10520); assay: S. pyogenes streptokinase expression inhibitors, potency, dose response, plasminogen activation absorbance, OD405 (AID 1914); assay type: functional, Streptococcus pyogenes M1 GAS;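 note: secreted streptokinase activity via plasminogen activation per viability signal from cell pellet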
T4 sequence (P10520 whole entry): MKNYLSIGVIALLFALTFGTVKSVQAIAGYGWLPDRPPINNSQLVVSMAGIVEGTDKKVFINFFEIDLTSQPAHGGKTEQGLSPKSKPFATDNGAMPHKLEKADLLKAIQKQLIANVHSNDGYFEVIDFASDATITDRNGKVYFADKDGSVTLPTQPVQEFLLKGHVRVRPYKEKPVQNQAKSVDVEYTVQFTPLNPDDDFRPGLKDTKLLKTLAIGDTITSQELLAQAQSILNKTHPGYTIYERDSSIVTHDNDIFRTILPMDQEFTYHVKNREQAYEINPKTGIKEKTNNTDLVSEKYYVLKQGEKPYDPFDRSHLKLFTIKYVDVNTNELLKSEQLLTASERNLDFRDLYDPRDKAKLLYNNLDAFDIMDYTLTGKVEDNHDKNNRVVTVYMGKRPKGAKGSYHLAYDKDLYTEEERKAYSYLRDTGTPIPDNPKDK

Fatty acid synthase [6] = biological target: T3, Fatty acid synthase; assay: FAS thioesterase domain inhibitors, dose response, biochemical, endpoint fluorescence intensity, uHTS hits (AID 624327); assay type: functional;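 note: fluorescence from hydrolysis of an O-methyl fluorescein acyl ester substrate by the enzyme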
HEK293 = assay: Fluorescence-based counterscreen for potentiators or agonists of NPY-Y2: cell-based high-throughput dose response assay to identify inhibitors of cyclic nucleotide gated ion channel (CNGC) activity. In this assay, the parental HEK293 cell line transfected with a cyclic-nucleotide gated ion channel (CNGC)-based cAMP sensor is used to measure inhibition of isoproterenol-induced CNGC activity by test compound.; assay type: functional; conditions: Homo sapiens;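 note: stimulus is 1 µM isoproterenol at EC100 plus PDE inhibitor Ro 20-1724 at 25 µM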
[7] = biological target: Mothers against decapentaplegic homolog 3 (Homo sapiens, UniProt P84022); assay: Smad3 binding inhibitors, lysate ELISA, dose response, cell lysate, secondary confirmation, chemiluminescent ELISA, HEK293 lysate (AID 1058); assay type: functional
Chain of Mothers against decapentaplegic homolog 3 (P84022 whole entry): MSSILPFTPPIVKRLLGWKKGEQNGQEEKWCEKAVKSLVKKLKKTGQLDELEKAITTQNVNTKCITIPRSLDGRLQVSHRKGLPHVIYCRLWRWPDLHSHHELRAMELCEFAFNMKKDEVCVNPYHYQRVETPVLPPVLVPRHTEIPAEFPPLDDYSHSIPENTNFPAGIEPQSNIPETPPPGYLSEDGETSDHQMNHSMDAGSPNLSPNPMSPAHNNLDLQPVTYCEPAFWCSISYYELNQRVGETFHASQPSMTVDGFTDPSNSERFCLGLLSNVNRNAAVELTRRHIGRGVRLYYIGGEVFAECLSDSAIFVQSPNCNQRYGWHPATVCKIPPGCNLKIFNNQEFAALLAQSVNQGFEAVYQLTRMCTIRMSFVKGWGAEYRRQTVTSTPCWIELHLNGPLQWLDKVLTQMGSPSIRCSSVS

[8] = biological target: T5, Eukaryotic translation initiation factor 2-alpha kinase 3 (Homo sapiens, UniProt Q9NZJ5); assay: Dose response cell-based high-throughput screening assay to measure PERK inhibition. [Related pubchem assays: 1416 ]; assay type: functional
T5 sequence (Q9NZJ5 whole entry): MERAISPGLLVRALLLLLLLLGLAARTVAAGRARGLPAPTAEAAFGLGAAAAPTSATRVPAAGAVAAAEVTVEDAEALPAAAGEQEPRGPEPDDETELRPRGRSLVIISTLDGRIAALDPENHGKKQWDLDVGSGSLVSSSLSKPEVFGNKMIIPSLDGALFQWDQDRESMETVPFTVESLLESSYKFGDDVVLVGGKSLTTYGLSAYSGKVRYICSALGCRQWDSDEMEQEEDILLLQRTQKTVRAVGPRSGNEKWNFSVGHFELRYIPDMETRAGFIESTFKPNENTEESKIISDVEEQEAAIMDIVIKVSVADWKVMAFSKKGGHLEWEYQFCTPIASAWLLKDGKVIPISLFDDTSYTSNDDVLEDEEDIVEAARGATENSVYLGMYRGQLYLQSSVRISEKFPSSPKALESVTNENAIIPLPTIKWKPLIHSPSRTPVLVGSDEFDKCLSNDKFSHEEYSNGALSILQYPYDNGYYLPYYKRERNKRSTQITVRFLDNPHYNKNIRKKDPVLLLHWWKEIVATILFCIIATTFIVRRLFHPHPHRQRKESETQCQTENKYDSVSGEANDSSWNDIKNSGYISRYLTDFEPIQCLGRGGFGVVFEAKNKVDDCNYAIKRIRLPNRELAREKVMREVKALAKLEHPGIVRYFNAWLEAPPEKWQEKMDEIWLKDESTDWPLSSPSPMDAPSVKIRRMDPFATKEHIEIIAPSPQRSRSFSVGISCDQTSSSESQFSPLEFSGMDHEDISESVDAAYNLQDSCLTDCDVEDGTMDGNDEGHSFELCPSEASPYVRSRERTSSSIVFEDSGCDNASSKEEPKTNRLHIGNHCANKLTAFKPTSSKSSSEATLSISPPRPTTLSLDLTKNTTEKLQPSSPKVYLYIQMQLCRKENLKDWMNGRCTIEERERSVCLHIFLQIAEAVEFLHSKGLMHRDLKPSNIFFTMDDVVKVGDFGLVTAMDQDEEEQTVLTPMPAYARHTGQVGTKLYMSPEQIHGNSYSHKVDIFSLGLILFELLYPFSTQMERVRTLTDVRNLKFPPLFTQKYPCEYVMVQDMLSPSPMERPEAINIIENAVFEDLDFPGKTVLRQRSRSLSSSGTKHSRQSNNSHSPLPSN

[9] = biological target: T5, Eukaryotic translation initiation factor 2-alpha kinase 3; assay: Counterscreen assay for PERK inhibitors: Dose response cell-based high throughput screening assay to measure inhibition of PERK at 6 hours. [Related pubchem assays: 1522, 1416 ]; assay type: functional
[10] = biological target: T6, Zinc finger protein mex-5 (Caenorhabditis elegans, UniProt Q9XUB2); assay: MEX-5/TCR-2 RNA interaction inhibitors, dose response, biochemical, C. elegans, fluorescence polarization (AID 1960)
T6 sequence (Q9XUB2 whole entry): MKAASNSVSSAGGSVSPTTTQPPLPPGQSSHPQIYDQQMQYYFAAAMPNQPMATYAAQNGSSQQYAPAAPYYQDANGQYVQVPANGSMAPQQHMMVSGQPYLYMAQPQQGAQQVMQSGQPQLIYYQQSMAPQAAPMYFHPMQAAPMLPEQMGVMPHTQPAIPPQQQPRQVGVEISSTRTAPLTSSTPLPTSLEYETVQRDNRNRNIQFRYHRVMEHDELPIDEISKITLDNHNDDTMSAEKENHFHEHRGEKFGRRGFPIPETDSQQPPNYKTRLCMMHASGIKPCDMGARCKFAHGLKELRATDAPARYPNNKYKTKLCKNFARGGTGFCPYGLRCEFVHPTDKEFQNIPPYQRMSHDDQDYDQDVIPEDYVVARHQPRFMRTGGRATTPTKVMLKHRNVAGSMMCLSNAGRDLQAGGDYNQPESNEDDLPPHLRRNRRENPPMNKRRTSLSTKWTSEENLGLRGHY

Cytochrome P450 2C9 = Cytochrome P450 2C9 (Homo sapiens, UniProt P11712); conditions: read-out: Potency
[11] = biological target: T7, RNA-binding protein pos-1 (Caenorhabditis elegans, UniProt G5EF15); assay: inhibitors of POS-1/mex-3 RNA binding, dose response, biochemical, fluorescence polarization (AID 1964);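 note: purified POS-1 fused to maltose binding protein made in E. coli; potency of compounds blocking POS-1 binding to fluorescent RNA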
T7 sequence (G5EF15 whole entry): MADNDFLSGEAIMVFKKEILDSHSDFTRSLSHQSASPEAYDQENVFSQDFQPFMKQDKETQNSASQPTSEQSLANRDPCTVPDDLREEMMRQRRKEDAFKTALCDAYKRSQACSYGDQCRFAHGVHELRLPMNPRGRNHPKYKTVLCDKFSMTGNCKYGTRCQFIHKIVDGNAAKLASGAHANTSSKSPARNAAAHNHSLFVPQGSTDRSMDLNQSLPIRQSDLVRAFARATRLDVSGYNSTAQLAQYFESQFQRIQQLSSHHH

Vero = Vero cell cytotoxicity, cytotoxicity control for flavivirus capping enzyme inhibitors (AID 588742); assay type: functional; conditions: Chlorocebus sabaeus
Cytochrome P450 2D6 = Cytochrome P450 2D6 (Homo sapiens, UniProt P10635); assay: qHTS Assay for Inhibitors and Substrates of Cytochrome P450 2D6. [Related pubchem assays: 410 ]; assay type: ADME; conditions: human; read-out: Potency
Chain of Cytochrome P450 2D6 (P10635 whole entry): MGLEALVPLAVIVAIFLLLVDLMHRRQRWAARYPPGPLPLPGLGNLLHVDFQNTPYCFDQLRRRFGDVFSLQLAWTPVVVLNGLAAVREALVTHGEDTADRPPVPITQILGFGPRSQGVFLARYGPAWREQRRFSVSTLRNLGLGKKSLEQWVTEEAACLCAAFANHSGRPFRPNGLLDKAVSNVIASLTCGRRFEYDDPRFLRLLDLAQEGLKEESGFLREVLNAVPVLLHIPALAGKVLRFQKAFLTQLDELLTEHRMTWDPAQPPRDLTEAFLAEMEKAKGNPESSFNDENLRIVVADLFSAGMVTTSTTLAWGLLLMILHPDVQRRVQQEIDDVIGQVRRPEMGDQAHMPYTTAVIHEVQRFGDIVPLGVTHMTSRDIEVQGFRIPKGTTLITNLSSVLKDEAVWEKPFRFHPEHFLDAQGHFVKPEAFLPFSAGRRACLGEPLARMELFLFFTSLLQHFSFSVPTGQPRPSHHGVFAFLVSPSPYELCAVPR

Cytochrome P450 2C19 = Cytochrome P450 2C19 (Homo sapiens, UniProt P33261); assay: Cytochrome panel assay with activity outcomes. Panel member name: p450-cyp2c19 Compounds with AC50 equal or less than 10 uM are considered active; assay type: functional
Chain of Cytochrome P450 2C19 (P33261 whole entry): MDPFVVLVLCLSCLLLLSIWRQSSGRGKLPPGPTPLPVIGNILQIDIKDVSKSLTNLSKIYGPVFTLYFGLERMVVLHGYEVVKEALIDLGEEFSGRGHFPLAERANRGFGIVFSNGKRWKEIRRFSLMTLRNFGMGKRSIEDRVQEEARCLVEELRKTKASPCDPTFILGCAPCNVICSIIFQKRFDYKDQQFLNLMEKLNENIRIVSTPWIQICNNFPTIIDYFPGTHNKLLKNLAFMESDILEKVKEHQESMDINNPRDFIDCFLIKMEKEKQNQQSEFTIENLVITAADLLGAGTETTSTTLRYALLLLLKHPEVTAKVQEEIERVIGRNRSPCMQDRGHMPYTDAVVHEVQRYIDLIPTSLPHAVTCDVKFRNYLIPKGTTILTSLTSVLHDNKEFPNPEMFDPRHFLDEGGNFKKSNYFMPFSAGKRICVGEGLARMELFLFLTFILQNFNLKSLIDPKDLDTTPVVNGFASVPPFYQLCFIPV

In the case of `COc1cc(C)c(Cl)cc1S(=O)(=O)n1cnc(C)c1`, the EC50 [1] is reported as > 50 µM (active).
For `C=CCN1C(=O)/C(=C/c2ccc(OC(C)=O)c(OCC)c2[N+](=O)[O-])SC1=S`, the EC50 [2] was 18.4 µM (not active), the EC50 (Streptococcus) was 2.63 µM (active) and the EC50 [3] was 1.32 µM (active). For the same molecule, the EC50 [4] was 14.8 µM (not active), the IC50 (Fatty acid synthase [5]) was 2.87 µM (active) and the AC50 (Paired box protein Pax-8) was 5.91 µM (active). For the same molecule, the EC50 (Streptokinase A) was > 150 µM (not active), the IC50 (Fatty acid synthase [6]) was 5.92 µM (active) and the EC50 (HEK293) was > 11.8 µM (not active).
For `COc1ccc(C(c2cc3c(cc2O)OCO3)N2CCN(C(c3ccc(OC)cc3)c3cc4c(cc3O)OCO4)CC2)cc1` (centres undefined), the IC50 [7] was 36.1 µM (not active).
With `Cc1cccc(/C=N/n2c(S)nnc2-c2ccco2)c1` the EC50 [8] was > 55.7 µM (not active) and the EC50 [9] was > 55.7 µM (not active).
In the case of `C=CC1=C(C)c2cc3[nH]c(cc4nc(cc5[nH]c(cc1n2)c(C)c5CCC(=O)O)C(CCC(=O)O)=C4C)c(C)c3C=C` [PROTOPORPHYRIN], the EC50 [10] is reported as 8.89 µM (active), the AC50 (Cytochrome P450 2C9) is reported as 6.31 µM (inconclusive) and the EC50 [11] is reported as 9.95 µM (active). For the same molecule, the CC50 (Vero) was 19.7 µM (active), the AC50 (Cytochrome P450 2D6) was 25.1 µM (inconclusive) and the AC50 (Cytochrome P450 2C19) was “inconclusive”.
